{"source": "patent US20090148546A1", "about": "“Methods and compounds fo rthe treatment of obesity and obesity-related disorders” (priority 2005, published 2009)", "test_system": "3T3-L1 cells", "assay": "Adipogenesis: differentiation of 3T3-L1 cells into adipocytes, oil red-O staining", "assay_type": "cell-based, mouse", "conditions": "10 days", "text": "It is reported here for the first time that capsaicin is a potent inhibitor of adipogenesis. The accepted model for the process of adipogenesis is the differentiation of mouse-derived 3T3-L1 fibroblasts into adipocytes after treatment with potent inducers such as dexamethasone, isobutyrylmethylxanthine, and insulin. In this model, the adipocytes are identified by the accumulation of lipid droplets in the cytoplasm. We tested the effect of the presence or absence of capsaicin on this process.\nNIH 3T3-L1 cells were obtained from American Type Culture Collection (Manassas, Va.). NIH 3T3-L1 cells are a mouse-derived fibroblast cell line that convert into adipocytes under certain conditions. This cell system is well known in the art and is a standard model for the study of adipocyte metabolism. The cells were cultured using well known methods in complete medium (Dulbecco Modified Eagle's Medium (DMEM) (4500 mg glucose/liter) containing 10% fetal bovine serum (FBS)). When the cells were 75% confluent, they were subcultured into multi-well culture plates and allowed to grow to confluency. The differentiation of the cells into adipocytes was initiated by switching to inducing medium (complete medium containing 10 uM dexamethasone, 0.5 mM isobutyrylmethylxanthine, and 10 ug/ml insulin). 1 ug/ml and 0.5 ug/ml doses of capsaicin were added to a number of the culture wells. After 48 hours, the inducing medium was replaced with maintenance medium 1 (complete medium containing insulin (10 ug/ml) with or without capsaicin). After 24 hours, the cells were switched to maintenance medium 2 (complete medium with or without capsaicin). The cultures were followed for up to 10 days for differentiation into adipocytes. The culture medium was replaced every 2 days with a medium of similar composition. The cells were photographed every 2 days to follow their progress. On day 10, the cells were stained with oil red-O (to stain for intracellular lipid) and photographed.", "data": [{"compound": "COc1cc(CNC(=O)CCCC/C=C/C(C)C)ccc1O", "note": "[capsaicin, trans-8-methyl-N-vanillyl-6-nonenamide]", "values": [{"measurement": "differentiation into adipocytes", "setting": "0.5 ug/ml and 1 ug/ml", "result": "did not become adipocytes"}, {"measurement": "lipid accumulation (oil red-O stain)", "setting": "0.5 ug/ml, FIG. 2", "result": "significant decrease in lipid accumulation"}, {"measurement": "lipid accumulation (oil red-O stain)", "setting": "1 ug/ml, FIG. 3", "result": "significant decrease in lipid accumulation"}]}]}
